Measured values reported in patent US10792280B2, “Pharmaceutical composition comprising amodiaquine and anti-diabetes drug as effective ingredient for prevention or treatment of diabetes” (NOVMETAPHARMA CO., LTD., priority 2016, dated 2020).

Tests used:
[1] = test system: high fat-induced obesity mice; test: Body weight of high fat-induced obesity mice; assay type: in vivo, mouse; conditions: amodiaquine 20 mg/kg
Method: To measure a decrease in body weight of mice by amodiaquine, 7-week-old male C57BL/6 mice (Charles River Laboratories, Tokyo, Japan) were purchased and raised under certain conditions (temperature: 22±2° C., relative humidity: 55±10%, and light/dark cycle: 12 hours). The mice were grouped into 7 individuals per group, freely fed water and diets in a cage, and then acclimated for 1 week before an experiment.
An average body weight was calculated by dividing the sum of weights of 7 mice per group by the number of mice.

[2] = test system: KKAy mice; test: Glycated hemoglobin (HbA1C) in KKAy mice (amodiaquine); assay type: in vivo, mouse; conditions: 18 mg/kg oral daily for 6 weeks, FIG. 4
Method: As in Example 3, the first group of experimental animals was administered PBS and set as a control, and the second group was orally administered amodiaquine at a concentration of 18 mg/kg using a 1 ml syringe daily for 6 weeks.

[3] = test system: high fat-induced obesity mice; test: Fatty liver histology (hematoxylin & eosin) in high fat-induced obesity mice; assay type: in vivo, mouse; conditions: HFD mice, 14 weeks and 22 weeks; FIGS. 8A and 8B
Description: Among the experimental animals designed in Example 5, mice in the high fat-induced obesity mouse group fed a high fat diet for 14 weeks with drug administration and high fat-induced obesity mice fed a high fat diet for 7 weeks with drug administration after obesity was induced by a high fat diet for 15 weeks were sacrificed by cervical spine dislocation, fixed on a dissection stand, and subjected to abdominal dissection with a scalpel to extract the liver. The extracted liver tissue was fixed in a 10% formalin solution to prevent contractile deformation. After 24 hours, the fixed tissue was washed with running water, and then general tissue dehydration, clearing, and penetration were performed thereon using an automatic tissue processor (6460B, Sakura, Japan) for 14 hours, and manufacture of paraffin blocks and cooling were performed using an automated embedding device (Tissue-Tex, Japan). The manufactured paraffin blocks were continuously sliced to a thickness of 4 m to 5 m in a vertical direction of the tissue using a rotary microtome 2040 (Japan), and attached to slides after processing using a floating hot water tank and a slide warming table. […]

[4] = test system: KKAy mice; test: Fasting blood glucose in KKAy mice (amodiaquine); assay type: in vivo, mouse; conditions: 18 mg/kg oral daily for 6 weeks, control 132.4 mg/dl
Method: (§1) 5-week-old KKAy purchased from Clea Japan was preliminarily raised for one week and then divided into two groups (5 individuals per group). The first group was administered PBS and set as a negative control, and the second group was orally administered amodiaquine at a concentration of 18 mg/kg daily for 6 weeks. […] For measurement of the blood glucose concentration, an intraperitoneal glucose tolerance test (IPGTT) was used.

[5] = test system: C2C12 myotube cells; test: Glucose uptake ([3H]2-DOG) in C2C12 myotube cells; assay type: cell-based, mouse; conditions: 10 μM or 30 μM, 24 h; compared with 50 μM rosiglitazone; FIG. 2
Method: The phosphorylation of insulin receptors occurs due to signal transduction by insulin in muscle, adipose, liver cells, and the like, and accordingly, when various proteins located downstream are phosphorylated, glucose uptake increases, resulting in reduced blood glucose. Thus, a glucose uptake evaluation experiment was carried out to identify whether amodiaquine is effective for diabetes. C2C12 myoblasts, which are muscle cells, were cultured in DMEM containing 10% […]. When the cell density reached about 80% to about 90%, the medium was replaced with fresh 2% horse serum-containing DMEM, and cell differentiation of the C2C12 myoblasts into myotubes was induced to completely differentiate the cells, and then an experiment was carried out. […] Washing was repeated three times every twenty minutes. Subsequently, 1 ml of KRP buffer was injected, a solution (0.2 mM, 0.2 μCi) prepared by dissolving unlabeled 2-DOG and [^3H]2-DOG (Amersham Pharmacia) in KRP buffer was added to the resulting cells at 37° C. to allow treatment for exactly 10 minutes.

[6] = test system: high fat-induced obesity mice; test: Oral glucose tolerance test (OGTT) in high fat-induced obesity mice; assay type: in vivo, mouse; conditions: HFD mice, 2 g/kg glucose oral; HFD control 180.5 mg/dl; FIG. 7A
Method: After fasting for 16 hours, 2 g/kg of glucose was orally administered to each of the control and experimental group animals, and a blood glucose concentration was measured every 30 minutes for 2 hours. For measurement of the blood glucose concentration, an oral glucose tolerance test (OGTT) was used.

[7] = test system: ACOX, CPT-1, and mCAD genes; test: Expression of PPAR-α target genes in liver, muscle and adipose tissues (real-time PCR); assay type: in vivo, mouse; conditions: muscle, adipose tissues, HFD 14 weeks, FIGS. 9A-9C
Description: Among the experimental animals designed in Example 5, mice of the high fat-induced obesity mouse groups fed a high fat diet for 14 weeks were sacrificed by cervical spine dislocation, fixed on a dissection stand, and then subjected to dissection with a scalpel to extract liver, muscle, and adipose tissues, and primer base sequences of (β-actin, ACOX, CPT-1, and mCAD are as follows:
After each tissue was disrupted using a grinding instrument, RNA was extracted using TRIzol, and cDNA was synthesized using reverse transcription polymerase chain reaction (RT PCR). […] The ACOX, CPT-1, and mCAD genes were calibrated with β-actin, thereby obtaining resultant values.

[8] = test system: KKAy mice; test: Intraperitoneal glucose tolerance test (IPGTT) in KKAy mice; assay type: in vivo, mouse; conditions: 18 mg/kg oral daily for 6 weeks, 2 g/kg glucose i.p., control 293.2 mg/dl
Method: as §1

[9] = test system: high fat-induced obesity mice; test: Heat production, 4° C. cold test in high fat-induced obesity mice; assay type: in vivo, mouse; conditions: HFD 14 weeks, up to 6 hours at 4° C.; FIG. 6
Method: To measure the heat production capability of mice fed a high fat diet for 14 weeks among the experimental animals designed in Example 5, a 4° C. cold test was performed (Spiegelman B. M. et al., Cell 92: 829-839, 1998). Hereinafter, the measurement method will be described in detail. A body temperature of mice in the high fat-induced obesity mouse group was measured before being exposed to 4° C., and recorded as an experiment start measurement temperature, and then the mice were exposed in a 4° C. room for up to 6 hours, followed by measurement of body temperature every hour. The body temperature was measured using a rectal thermometer for a mouse (Testo 925, Germany). A heat production measurement value indicated a temperature measured every hour.

[10] = test system: high fat-induced obesity mice; test: Intraperitoneal insulin tolerance test (IPITT) in high fat-induced obesity mice; assay type: in vivo, mouse; conditions: for blood glucose concentration after 2 hours vs fasting blood glucose (IPITT): HFD with simultaneous administration, 0.5 U/kg insulin i.p., FIG. 7B; for time of lowest blood glucose level after insulin (IPITT): administration after long-term HFD-induced obesity, FIG. 7C
Description: For measurement of the blood glucose concentration, an intraperitoneal insulin tolerance test (IPITT) was used.

[11] = target: T1, PPAR-α (Homo sapiens, UniProt Q07869); test: PPAR-α activation, GAL4-PPAR-α-LBD luciferase reporter in BE(2)C cells; assay type: cell-based; conditions: 20 h treatment, up to 50 μM, FIGS. 1C, 1D
T1 construct: expressed in transfected cells; host or cells: BE(2)C cells
T1 sequence (Q07869 239-466 limits assumed): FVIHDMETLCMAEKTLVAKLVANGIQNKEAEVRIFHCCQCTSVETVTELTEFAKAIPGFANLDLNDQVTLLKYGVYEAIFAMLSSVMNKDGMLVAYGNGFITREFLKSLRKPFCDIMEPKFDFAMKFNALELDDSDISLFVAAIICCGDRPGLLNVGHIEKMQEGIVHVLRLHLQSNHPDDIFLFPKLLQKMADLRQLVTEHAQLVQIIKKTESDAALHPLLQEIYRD
Method: (§2) To examine whether amodiaquine acts as a ligand of […] or PPAR-α, three types of vectors were used.
(§3) The activation of luciferase expression was measured after BE(2)C cells were transformed with a GAL4-PPAR-γ-LBD plasmid or a GAL4-PPAR-α-LBD plasmid, a GAL4-luciferase vector, and a β-galactosidase vector for 6 hours, treated with amodiaquine for 20 hours, and then grown in a 5% CO2 incubator.

[12] = target: T2, PPAR-γ (Homo sapiens, UniProt P37231); test: PPAR-γ activation, GAL4-PPAR-γ-LBD luciferase reporter in BE(2)C cells; assay type: cell-based; conditions: 20 h treatment, up to 50 μM, FIGS. 1A, 1B
T2 construct: expressed in transfected cells; host or cells: BE(2)C cells
T2 sequence (P37231 238-503 limits assumed): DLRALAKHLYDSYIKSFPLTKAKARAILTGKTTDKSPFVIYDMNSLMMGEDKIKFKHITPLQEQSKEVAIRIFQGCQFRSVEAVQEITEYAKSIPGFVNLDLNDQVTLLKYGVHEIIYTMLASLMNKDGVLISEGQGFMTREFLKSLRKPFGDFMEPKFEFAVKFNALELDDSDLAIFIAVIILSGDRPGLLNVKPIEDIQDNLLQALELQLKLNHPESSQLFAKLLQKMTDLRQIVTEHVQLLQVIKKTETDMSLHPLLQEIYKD
Method: as §2, §3

| Compound | body weight vs high fat-induced obesity mice ([1]; HFD with substance administration for 14 weeks, FIG. 5A) | body weight vs high fat-induced obesity mice ([1]; substance administration for 7 weeks after obesity induced by HFD for 15 weeks, rosiglitazone 50 mg/kg, FIG. 5C) | glycated hemoglobin production as compared to control mice [2] | liver appearance (fat accumulation, H&E) [3] | fasting blood glucose concentration [4] | glucose uptake [5] | blood glucose concentration 2 hours after glucose loading (OGTT) [6] | increase in expression amounts of the ACOX, CPT-1, and mCAD genes as compared to the control [7] | blood glucose concentration 2 hours after glucose loading (IPGTT) [8] | body temperature on exposure to 4° C. (heat production) [9] | blood glucose concentration after 2 hours vs fasting blood glucose (IPITT) [10] | time of lowest blood glucose level after insulin (IPITT) [10] | PPAR-α activity (luciferase expression) [11] | PPAR-γ activity (luciferase expression) [12] |
| --- | --- | --- | --- | --- | --- | --- | --- | --- | --- | --- | --- | --- | --- | --- |
| CCN(CC)Cc1cc(Nc2ccnc3cc(Cl)ccc23)ccc1O [amodiaquine] | significantly lower than that of the high fat-induced obesity mice | significant decrease in body weight | approximately 69% | almost the same appearance as that of normal mice | 100.2 mg/dL | further increased as compared to that in the group treated with rosiglitazone | 139.1 mg/dL | ≥ 215 fold | 207 mg/dL | smaller decrease in body temperature than that of the high fat-induced obesity mice | maintained at a lower level than the fasting blood glucose concentration | 30 min | high PPAR-α activity in a concentration-dependent manner | higher PPAR-γ activity in a concentration-dependent manner than that of the positive control treated with rosiglitazone |
| CN(CCOc1ccc(CC2SC(=O)NC2=O)cc1)c1ccccn1 (centres unmarked) [rosiglitazone] |  |  |  |  |  |  |  |  |  |  |  | 60 min |  |  |
| Cc1cccc(Nc2cc(Cl)nc(SCC(=O)O)n2)c1C [WY-14,643] |  |  |  |  |  |  |  |  |  |  | maintained at a lower level than the fasting blood glucose concentration |  |  | did not exhibit PPAR-γ activity |
